# Measured values published in publication PMC5642494 (Oncotarget, 2017).
# System: HR+ and HR- breast cancer cell lines
# Assay: Proliferation after washouts (EdU Click-iT) in breast cancer lines
# Assay type: cell-based, human
# Procedure: Images were SA-β-galactosidase immunocytochemical labeling taken by fluorescent microscopy using a Leica DMiL. […] SA-β-gal Cell samples were lysed after treatment with expression was determined using the Senescence Cells 100 μL lysis buffer and transferred to a 96-well plate. Histochemical Staining Kit (Sigma, CS0030) following 30 μL of each sample were transferred into deep well the vendor 's manual. Images were taken at 100x by bright plates using TECAN-EVO Workstation. Samples were field microscopy (Leica DMiL). treated for derivatization of the metabolites of interest and internal standards. For this, 50 μL of derivatization reagent Proliferation studies after washouts (EdU Click- and 80 μL of internal standard (IS, SupplementaryTable iT®) 1), were added with multidrop, plates were vortexed for 5 mins and let sit for one hour at 4 °C. The IS used were the Cells were plated onto poly-D-lysine D or 13C-labeled commercial analogues of nine of the ten coated 96-well plates at a density of 2,000-6,000 metabolites, prepared at 25 μM in water (Supplementary viable cells per well, and treated with abemaciblib or Table 1). The derivatization reagents (from Sigma), […] washout schedule shown on Supplementary Figure 1A. […] EdU Samples were analyzed by LC-MS/MS under the detection was performed using the Click-iT High Content conditions described below. […] Cell images were captured using a Cellomics Arrayscan VTI and analyzed Analysis of the derivatized-extracted samples with the Target Activation bio-application V.3 reading in 4 was carried out with an Agilent 6460 Triple Quadrupole channels at a magnification of 10X. […] The software relative levels and sub-cellular localization of EdU were for data collection and treatment was Agilent Masshunter determined through the respective intensities and locations Workstation. Mobile phases for chromatography were: of Alexa-488 fluorescence. mobile phase A: formic acid (5 mM) and ammonium formate (10 mM) in water; mobile phase B: acetonitrile. […]
structure (smiles),measurement,setting,value
"CCN1CCN(Cc2ccc(Nc3ncc(F)c(-c4cc(F)c5nc(C)n(C(C)C)c5c4)n3)nc2)CC1 [abemaciclib, Abemaciclib]",DNA synthesis / proliferation as measured by EdU incorporation,"HR+ versus HR- breast cancer cell lines, exposure 2 hr, 24 hr or 72 hrs followed by washout",preferentially reduced in HR+ compared to HR- cell lines
same,sensitivity of HR- cell lines with RB1 mutation or loss (EdU incorporation),"MDA-MB-468, BT549, BT20, HCC1937, HCC70",insensitive
